{
  "source": "patent US20250188164A1",
  "about": "“PHARMACEUTICAL COMPOSITION COMPRISING ANTI-CTLA4-ANTI-PD-1 BISPECIFIC ANTIBODY AND CHIAURANIB” (AKESO PHARMACEUTICALS, INC., priority 2022, published 2025)",
  "tested_on": "mixed culture of DC, PBMC and A375 cells",
  "assay": "Lymphocyte-tumor cell mixed reaction system, cytokine secretion by ELISA",
  "assay_type": "cell-based, human",
  "settings": "A375 cells treated with 15 μM chiauranib for 48 h, BiAb004(hG1TM) 300 nM",
  "experimental": "Freshly isolated PBMCs (from healthy donors) were adhered to the wall overnight. Mononuclear cells were collected. GM-CSF (2000 U/mL, from peprotech, Cat. No. 300-03) and IL-4 (2000 U/mL from peprotech, Cat. No. 200-04) were added. Induction was performed after 3 days of culture. For the iDC group, half of the medium was exchanged, and GM-CSF (2000 U/mL) and IL4 (2000 U/mL) were added. For the mDC group, half of the medium was exchanged, and GM-CSF (2000 U/mL), IFN-γ (50 ng/mL, from Sino Biological, Cat. No. 11725-HNAS-100) and LPS (100 ng/mL, from SIGMA, Cat. No. L6529) were added. The cells were cultured in an incubator for 2 days and frozen for later use.\nA375 cells (purchased from ATCC, agency: Zhongyuan Ltd., Cat. No. CRL-1619) were digested conventionally, collected by centrifugation, and plated on 10 cm dishes at 2×10^6 cells/dish. Chiauranib (from Chipscreen Biosciences, Lot No. 210604) was added to one of the dishes to a final concentration of 15 μM, and a blank control group was set. The mixture was incubated in an incubator at 37° C. and 5% CO2 for 48 h (medium: DMEM+10% FBS). […] The cells were counted and plated as per DC:PBMC=1:10 in 96-well flat-bottom plates. […] The amounts of secretion of IFN-γ (purchased from Dakewe, Cat. No. 1110202) and IL-2 (purchased from Dakewe, Cat. No. 1110202) were measured by an ELISA kit.",
  "data": [
    {"compound": "COc1ccc2c(Oc3ccc4c(C(=O)Nc5ccccc5N)cccc4c3)ccnc2c1", "note": "[chiauranib, N-(2-aminophenyl)-6-(7-methoxyquinoline-4-oxy)-1-naphthamide]", "values": [
      {"measurement": "secretion of IFN-γ", "setting": "supernatants day 3 and day 5, FIG. 17", "result": "effectively promote"},
      {"measurement": "secretion of IL-2", "setting": "supernatants day 3 and day 5, FIG. 18", "result": "effectively promote"}
    ]}
  ]
}
